Assay results published in article PMC12392461, “Beyond Estrogenicity: A Comparative Assessment of Bisphenol A and Its Alternatives in In Vitro Assays Questions Safety of Replacements” (Environmental Science & Technology, 2025).
Read-outs that look alike come from different tables or passages of the source.

Columns and labels:
[1] = molecular target: T1, Peroxisome proliferator-activated receptor γ (Homo sapiens, UniProt P37231); experiment: cell-based; settings: for EC10, linear / logEC10: PPARγ bioassay, dosing range all; for EC10, linear: linear model; for logEC10: log-logistic model
T1 sequence (P37231 238-505 limits assumed): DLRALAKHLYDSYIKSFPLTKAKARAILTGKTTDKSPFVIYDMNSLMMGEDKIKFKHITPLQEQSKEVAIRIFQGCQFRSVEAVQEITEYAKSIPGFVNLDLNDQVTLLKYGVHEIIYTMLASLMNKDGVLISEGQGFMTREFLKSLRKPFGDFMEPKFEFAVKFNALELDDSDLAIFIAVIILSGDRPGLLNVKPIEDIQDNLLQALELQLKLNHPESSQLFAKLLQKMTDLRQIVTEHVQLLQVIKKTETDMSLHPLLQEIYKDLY
Source text: All bioassay media components and the ERα-UAS-bla GripTite and PPARγ-UAS-bla cells were obtained from Thermo Fisher Scientific (Waltham, MA, USA). AREc32 reporter gene cells based on MCF7 were provided by C. Roland Wolf (Cancer Research UK); AhR CALUX cells (H4L7.5c2 derived from H4IIe) were provided by Michael Denison (UC Davis, USA); and SH-SY5Y cells were purchased from Sigma-Aldrich.
(§1) Cell culture conditions and bioassay protocols including response detection are provided in Text S2.1–2.4 and Table S3. − Cell viability was determined from cell confluency using an IncuCyte S3 Live-Cell Analysis System (Sartorius AG, Essen, Germany) before and after exposure, except for SH-SY5Y cells (live–dead staining with Nuclear Green LcS1 and propidium iodide, Abcam, UK). For metabolic activation experiments, cell viability was assessed using the ToxBLAzer DualScreen Kit (Thermo Fisher Scientific) to capture the remaining toxicity in ERα-UAS-bla GripTite after treatment with the aCYP catalyst (details in Text S2.4).
(§2) For ARE, the concentration that triggered an induction ratio of 1.5 (ECIR1.5) was used as the benchmark value, as detailed in Text S2.5. IC10 values also served as a threshold for data analysis in all assays; only concentrations below IC10 were considered when deriving EC10 or ECIR1.5.
The maximum efficacy (Emax%) refers to the maximum of the log–logistic concentration–response curve attained by test chemicals compared to the reference chemical’s maximum and was obtained for both ERα and PPARγ. […]
S2: Cell culture and bioassays
S2.1: Cell Culturing Conditions
All suppliers and sources are given in detail in SI-Excel S3. The bioassay media for the different assays were prepared as follows: Assay medium for ER alpha-UAS-bla GripTite (ERα) and […]
2% charcoal-stripped FBS, and 100 U/mL penicillin-streptomycin. […]
(§3) S2.2: Cell Seeding and Incubation. For all bioassays, cell suspensions in the respective assay medium were dispensed into each well of 384-well plates using a MultiFlo Dispenser (Biotek, (now Agilent), Winooski, VT, U.S.). After seeding, the plates were incubated at 37° C and 5% CO₂ for […]. The final cell densities and plate types were as follows: Black poly-D-lysine […]
6500 cells/well, ERα: 5000 cells/well. White 384-well plates with a clear bottom (Product No. […]
S2.3: Chemical Dosing and Assay Analysis Procedures.

[2] = tested on: H4IIe (AhR CALUX); settings: for IC10, H4IIe, AhR: H4IIe (AhR assay cells)
Protocol: as §1, §2
(§4) We measured the cytotoxicity of BPA and its alternatives in HEK293H (PPARγ), HEK293T (ERα), H4IIe (AhR CALUX), MCF7 (ARE/MMP), and differentiated SH-SY5Y cells (Table S6). […]
as §3
(§5) 6500 cells/well, ERα: 5000 cells/well. White 384-well plates with a clear bottom (Product No.
(§6) NYC, U.S.) for AhR: 3250 cells/well. Black Collagen I coated plates were used (Product No.
(§7) S2.3: Chemical Dosing and Assay Analysis Procedures. The dosing procedure and high-throughput assay workflow have been described in detail before. 9 The dosing concentrations […]
(§8) Stock solutions were then either added directly to the respective cell culture medium or evaporated under nitrogen, followed by replenishment with fresh medium. The final solvent content in each well was kept below 1% for methanol, 0% for acetonitrile.
(§9) Dosing plates were prepared as 11 -step serial dilutions using a Hamilton Microlab Star robotic system (Hamilton, Bonaduz, Switzerland), and chemicals were dosed in duplicates by transferring 10 μL twice from the dosing plates to the cell plates . After quantifying cell confluency as described in S2. 4., the exposed cells were incubated at 37° C and 5% CO₂ for an additional 24 h. All chemicals were tested in all assays with at least three independent […]
(§10) S2.4: Cell Viability Measurement s and bioanalytical protocols . The confluency as a measure of cell viability was determined with an IncuCyte S3 Live -Cell Analysis System (Sartorius AG, Essen, Germany). With this method the confluency of cells in a microscopy image are normalized to control wells without cells and compared before and after 24 hours of exposure.
(§11) This method has been described previously 13. […]

[3] = tested on: HEK293H (PPARγ); settings: for IC10, linear: linear model; for IC10, HEK293, PPARγ: cytotoxicity, HEK293 (PPARγ assay cells)
Protocol: as §1, §2, §4, §3, §5, §6, §7, §8, §9, §10, §11

[4] = tested on: HEK293T (ERα); settings: for IC10, HEK293, ERα: HEK293 (ERα assay cells)
Protocol: as §1, §2, §4, §3, §5, §6, §7, §8, §9, §10, §11

[5] = tested on: MCF7 (ARE/MMP); settings: for IC10, MCF7, ARE: MCF7, ARE readout; for IC10, MCF7, MMP: MCF7, MMP readout
Protocol: as §1, §2, §4, §3, §5, §6, §7, §8, §9, §10, §11

[6] = Bioassay AhR, cytotoxicity, dosing range all
[7] = Bioassay AhR, cytotoxicity, dosing range all, linear model fit
[8] = Bioassay AhR, cytotoxicity, dosing range all, log-logistic model fit
[9] = PPARγ bioassay cytotoxicity, dosing range all
[10] = PPARγ bioassay cytotoxicity, dosing range all, log-logistic model
[11] = Bioassay ERα, cytotoxicity, dosing range high
[12] = Bioassay ERα, cytotoxicity, dosing range high, linear model fit
[13] = Bioassay ERα, cytotoxicity, dosing range high, log-logistic model fit
[14] = Bioassay ERα, cytotoxicity, dosing range low, linear model fit
[15] = Bioassay ERα, cytotoxicity, dosing range low, log-logistic model fit
[16] = Bioassay ARE, cytotoxicity, dosing range all
[17] = Bioassay ARE, cytotoxicity, dosing range all, linear model fit
[18] = Bioassay ARE, cytotoxicity, dosing range all, log-logistic model fit
[19] = MMP bioassay cytotoxicity, dosing range all
[20] = MMP bioassay cytotoxicity, dosing range all, linear model
[21] = MMP bioassay cytotoxicity, dosing range all, log-logistic model

CC(C)CC(C)(c1ccc(O)cc1)c1ccc(O)cc1 [BP-MIBK, 4,4'-(1,3-Dimethylbutylidene)diphenol]
EC10, linear [1]: no effect | logEC10 [1]: no effect | IC10, linear [2]: no cytotoxicity | logIC10 ([2]; rat, 24 h): -4.05 | logIC10 ([3]; human, 24 h): -5.09 | IC10, linear [4]: no cytotoxicity | logIC10 [4]: no cytotoxicity | logIC10 ([4]; human, 24 h): -5.04 | IC10, linear [5]: no cytotoxicity

CC(C)(c1ccc(O)cc1)c1ccc(O)cc1 [BPA, 4,4'-(Propane-2,2-diyl)diphenol, reference compound]
EC10, linear [1]: no effect | logEC10 [1]: no effect | PPARγ activation ([1]; at concentrations up to IC10): did not activate PPARγ | IC10, linear [2]: no cytotoxicity | logIC10 ([2]; rat, 24 h): -3.77 | Toxic ratio (TR) TRPPARγ ([3]; human, 24 h): 0.38 | logIC10 ([3]; human, 24 h): -4.45 | IC10, linear [4]: no cytotoxicity | logIC10 [4]: no cytotoxicity | Toxic ratio (TR) TRERα ([4]; human, 24 h): 0.28 | logIC10 ([4]; human, 24 h): -4.33 | Toxic ratio (TR) TRARE ([5]; human, 24 h): 0.37 | Toxic ratio (TR) TRMMP ([5]; human, 24 h): 0.31

Oc1ccc(C(c2ccc(O)cc2)(C(F)(F)F)C(F)(F)F)cc1 [BPAF, 4,4'-(1,1,1,3,3,3-Hexafluoropropane-2,2-diyl)diphenol]
EC10, linear [1]: no effect | logEC10 [1]: no effect | IC10, linear transformed [2, 6]: 3.99E-05 | IC10, linear [2, 7]: 3.11E-05 | logIC10 [2, 8]: -4.40 | IC10, H4IIe, AhR ([2]; cytotoxicity): 31.1 µM | IC10, linear transformed [3, 9]: 4.34E-06 | IC10, linear [3, 9]: 1.10E-05 | logIC10 [3, 10]: -5.04 | IC10, HEK293, PPARγ [3]: 9.12 µM | IC10, linear transformed [4, 11]: 5.56E-06 | IC10, linear [4, 12]: no cytotoxicity | logIC10 [4, 13]: -5.02 | IC10, linear [4, 14]: no cytotoxicity | logIC10 [4, 15]: no cytotoxicity | IC10, HEK293, ERα ([4]; cytotoxicity): 9.47 µM | IC10, linear transformed [5, 16]: 1.84E-05 | IC10, linear [5, 17]: 1.82E-05 | logIC10 [5, 18]: -4.73 | IC10, linear transformed [5, 19]: 2.72E-05 | IC10, linear [5, 20]: 2.87E-05 | logIC10 [5, 21]: -4.57 | IC10, MCF7, ARE ([5]; cytotoxicity): 18.4 µM | IC10, MCF7, MMP ([5]; cytotoxicity): 27.2 µM

CC(c1ccccc1)(c1ccc(O)cc1)c1ccc(O)cc1 [BPAP, 4,4'-(1-Phenylethylidene)bisphenol]
EC10, linear [1]: no effect | logEC10 [1]: no effect | IC10, linear transformed [2, 6]: 9.59E-05 | IC10, linear [2, 7]: no cytotoxicity | logIC10 [2, 8]: -4.02 | IC10, H4IIe, AhR ([2]; cytotoxicity): 95.9 µM | IC10, linear transformed [3, 9]: 3.60E-06 | IC10, linear [3, 9]: no cytotoxicity | logIC10 [3, 10]: -4.99 | IC10, HEK293, PPARγ [3]: 10.2 µM | IC10, linear transformed ([4]; Bioassay ERα, cytotoxicity, dosing range all): 1.11E-05 | IC10, linear ([4]; Bioassay ERα, cytotoxicity, dosing range all, linear model fit): no cytotoxicity | logIC10 ([4]; Bioassay ERα, cytotoxicity, dosing range all, log-logistic model fit): -4.93 | IC10, HEK293, ERα ([4]; cytotoxicity): 11.8 µM | IC10, linear transformed [5, 16]: 3.14E-05 | IC10, linear [5, 17]: 2.44E-05 | logIC10 [5, 18]: -4.50 | IC10, linear transformed [5, 19]: 3.48E-05 | IC10, linear [5, 20]: 2.54E-05 | logIC10 [5, 21]: -4.46 | IC10, MCF7, ARE ([5]; cytotoxicity): 31.4 µM | IC10, MCF7, MMP ([5]; cytotoxicity): 34.8 µM

CCC(C)(c1ccc(O)cc1)c1ccc(O)cc1 [BPB, 4,4'-(Butane-2,2-diyl)diphenol]
EC10, linear [1]: no effect | logEC10 [1]: no effect | IC10, linear transformed [2, 6]: 8.31E-05 | IC10, linear [2, 7]: 6.98E-05 | logIC10 [2, 8]: -4.08 | Toxic ratio (TR) TRAhR ([2]; against baseline cytotoxicity): 0.31 | IC10, H4IIe, AhR ([2]; cytotoxicity): 69.8 µM | IC10, linear transformed [3, 9]: 2.50E-06 | IC10, linear [3, 9]: 1.29E-05 | logIC10 [3, 10]: -4.83 | Toxic ratio (TR) TRPPARγ ([3]; against baseline cytotoxicity): 0.61 | IC10, HEK293, PPARγ [3]: 14.8 µM | IC10, linear transformed [4, 11]: 6.28E-06 | IC10, linear [4, 12]: no cytotoxicity | logIC10 [4, 13]: -4.68 | IC10, linear [4, 14]: no cytotoxicity | logIC10 [4, 15]: no cytotoxicity | Toxic ratio (TR) TRERα ([4]; against baseline cytotoxicity): 0.43 | IC10, HEK293, ERα ([4]; cytotoxicity): 20.9 µM | IC10, linear transformed [5, 16]: 3.73E-05 | IC10, linear [5, 17]: 3.87E-05 | logIC10 [5, 18]: -4.43 | IC10, linear transformed [5, 19]: 3.51E-05 | IC10, linear [5, 20]: 3.05E-05 | logIC10 [5, 21]: -4.46 | Toxic ratio (TR) TRARE ([5]; against baseline cytotoxicity, ARE readout): 0.58 | Toxic ratio (TR) TRMMP ([5]; against baseline cytotoxicity, MMP readout): 0.62 | IC10, MCF7, ARE ([5]; cytotoxicity): 37.3 µM | IC10, MCF7, MMP ([5]; cytotoxicity): 35.1 µM
